Molecules are shown by their SMILES. Calls of active or inactive are those of the source. The rule behind the calls is not given here.

The test system of this assay is ALK tyrosine kinase receptor (Homo sapiens), Q9UM73 [L1196M].
Chain of ALK tyrosine kinase receptor (Homo sapiens), Q9UM73 [L1196M] (Q9UM73 whole entry L1196M, looked up): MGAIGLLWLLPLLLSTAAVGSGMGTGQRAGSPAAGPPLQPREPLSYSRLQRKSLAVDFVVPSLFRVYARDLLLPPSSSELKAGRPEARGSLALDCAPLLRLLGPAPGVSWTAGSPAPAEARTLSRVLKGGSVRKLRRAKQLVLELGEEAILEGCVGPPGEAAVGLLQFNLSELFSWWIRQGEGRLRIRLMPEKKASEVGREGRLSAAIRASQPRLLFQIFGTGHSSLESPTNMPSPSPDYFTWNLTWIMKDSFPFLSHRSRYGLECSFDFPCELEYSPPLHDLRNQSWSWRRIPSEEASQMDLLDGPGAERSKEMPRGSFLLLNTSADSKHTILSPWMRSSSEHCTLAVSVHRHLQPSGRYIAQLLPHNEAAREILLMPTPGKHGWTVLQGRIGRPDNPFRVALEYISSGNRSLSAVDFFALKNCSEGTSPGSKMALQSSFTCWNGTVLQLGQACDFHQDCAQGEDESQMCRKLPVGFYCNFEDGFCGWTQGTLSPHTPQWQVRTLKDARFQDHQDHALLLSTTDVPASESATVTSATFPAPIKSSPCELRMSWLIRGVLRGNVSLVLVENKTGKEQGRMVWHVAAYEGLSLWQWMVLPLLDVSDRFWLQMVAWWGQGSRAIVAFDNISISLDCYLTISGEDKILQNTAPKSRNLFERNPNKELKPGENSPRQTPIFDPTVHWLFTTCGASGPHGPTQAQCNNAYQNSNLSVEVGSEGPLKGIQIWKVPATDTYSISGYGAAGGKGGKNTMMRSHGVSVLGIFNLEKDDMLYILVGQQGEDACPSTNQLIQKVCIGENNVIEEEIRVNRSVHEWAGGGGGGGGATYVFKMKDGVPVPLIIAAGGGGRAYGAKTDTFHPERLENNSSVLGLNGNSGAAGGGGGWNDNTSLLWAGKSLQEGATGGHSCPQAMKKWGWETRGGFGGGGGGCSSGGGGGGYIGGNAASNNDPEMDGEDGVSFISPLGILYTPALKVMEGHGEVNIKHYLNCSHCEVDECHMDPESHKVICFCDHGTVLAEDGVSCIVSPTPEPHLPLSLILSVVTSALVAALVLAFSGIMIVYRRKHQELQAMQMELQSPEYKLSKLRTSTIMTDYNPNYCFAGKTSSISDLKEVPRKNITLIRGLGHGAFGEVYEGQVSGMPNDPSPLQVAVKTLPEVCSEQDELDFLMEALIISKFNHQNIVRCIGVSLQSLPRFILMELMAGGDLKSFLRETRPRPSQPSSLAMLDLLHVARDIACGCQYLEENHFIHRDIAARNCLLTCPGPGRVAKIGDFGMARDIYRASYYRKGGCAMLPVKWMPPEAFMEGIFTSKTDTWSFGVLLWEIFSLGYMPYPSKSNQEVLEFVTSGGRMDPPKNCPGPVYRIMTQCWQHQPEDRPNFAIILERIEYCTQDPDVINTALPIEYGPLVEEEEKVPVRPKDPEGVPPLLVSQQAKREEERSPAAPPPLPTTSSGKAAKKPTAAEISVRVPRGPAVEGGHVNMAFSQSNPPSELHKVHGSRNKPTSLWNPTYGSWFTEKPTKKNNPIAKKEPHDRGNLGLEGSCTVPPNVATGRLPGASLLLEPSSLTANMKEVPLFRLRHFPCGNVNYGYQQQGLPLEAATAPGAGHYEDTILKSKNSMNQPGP

`Cc1ccc(Oc2ccnc3cc(-c4cnn(C5CCNCC5)c4)ccc23)cc1`: the TDI result was “inactive”.

Source of the values: ChEMBL document CHEMBL4024756, “Identification of 4-Phenoxyquinoline Based Inhibitors for L1196M Mutant of Anaplastic Lymphoma Kinase by Structure-Based Design” (J Med Chem, 2017).
